The structures appear in SMILES notation. pIC50: −log10 of the molar value.

Chain of cAMP and cAMP-inhibited cGMP 3',5'-cyclic phosphodiesterase 10A (Q9Y233 whole entry): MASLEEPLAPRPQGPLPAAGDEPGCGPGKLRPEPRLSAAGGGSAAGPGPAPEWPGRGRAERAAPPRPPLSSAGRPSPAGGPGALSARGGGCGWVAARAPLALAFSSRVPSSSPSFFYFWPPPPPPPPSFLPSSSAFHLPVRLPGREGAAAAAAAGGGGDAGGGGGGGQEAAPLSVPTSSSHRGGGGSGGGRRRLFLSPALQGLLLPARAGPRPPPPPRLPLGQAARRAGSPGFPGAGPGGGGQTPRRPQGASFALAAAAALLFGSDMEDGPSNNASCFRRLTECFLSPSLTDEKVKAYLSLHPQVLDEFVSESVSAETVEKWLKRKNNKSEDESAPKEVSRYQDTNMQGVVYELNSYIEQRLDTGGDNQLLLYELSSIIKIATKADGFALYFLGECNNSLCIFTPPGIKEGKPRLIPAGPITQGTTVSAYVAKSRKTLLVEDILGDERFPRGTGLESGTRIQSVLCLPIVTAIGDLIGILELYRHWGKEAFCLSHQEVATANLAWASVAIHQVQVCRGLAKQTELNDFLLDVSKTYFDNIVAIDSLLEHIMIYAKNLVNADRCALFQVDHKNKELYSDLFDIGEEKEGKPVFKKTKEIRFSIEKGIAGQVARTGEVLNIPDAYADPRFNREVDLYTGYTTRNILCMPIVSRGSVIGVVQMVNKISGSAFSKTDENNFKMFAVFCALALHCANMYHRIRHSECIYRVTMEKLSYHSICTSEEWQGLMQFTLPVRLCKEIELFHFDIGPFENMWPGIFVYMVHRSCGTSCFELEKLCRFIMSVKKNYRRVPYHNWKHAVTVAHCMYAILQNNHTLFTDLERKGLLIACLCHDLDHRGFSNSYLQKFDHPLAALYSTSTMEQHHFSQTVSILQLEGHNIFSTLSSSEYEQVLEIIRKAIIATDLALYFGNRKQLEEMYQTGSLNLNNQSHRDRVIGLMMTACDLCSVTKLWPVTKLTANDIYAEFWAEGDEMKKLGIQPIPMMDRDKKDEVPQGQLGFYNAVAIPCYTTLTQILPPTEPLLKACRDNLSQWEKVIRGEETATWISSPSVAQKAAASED

The assay concerns the target cAMP and cAMP-inhibited cGMP 3',5'-cyclic phosphodiesterase 10A (Homo sapiens, UniProt Q9Y233). In words: Homogenous Time-Resolved Fluorescence Resonance Energy Transfer (TR-FRET) Technology: The phosphodiesterase assay was developed using the LANCE® cAMP kit (PerkinElmer). The assay buffer contained HBSS with 5 mM HEPES, 0.1% BSA, and 1.5 mM MgCl2, pH 7.4. PDE10A (BPS Bioscience) was used at 200 pg/well (with a specific activity of 3200 pmole/min/μg with assay conditions: 10 mM Tris-HCl, pH 7.4, 10 mM MgCl2, 1 mM MnCl2, 200 μM cAMP, 2.5 kU 5′ nucleotidase, 37° C., 20 min) and PDE4D3 (BPS Bioscience) was used at 100 pg/well (with a specific activity of 32713 pmole/min/μg with assay conditions: 10 mM Tris-HCl, pH 7.4, 10 mM MgCl2, 1 mM MnCl2, 200 μM cAMP, 2.5 kU 5′ nucleotidase, 37° C., 20 min). The Biotin-cAMP tracer, supplied in 10 mmol/L Tris-HCl buffered (pH 8.0) salt solution with 1 mmol/L ethylenediaminetetraacetic acid (EDTA), 0.1% bovine serum albumin (BSA), and 0.05% sodium azide, is used at a dilution of 1/375. The assay detection mixture contained the LANCE Eu-W8044 labeled streptavidin 1/2250 (supplied in 50 mmol/L Tris-HCl buffered (pH 7.8) salt solution with 0.9% sodium chloride (NaCl), 0.1% BSA, and 0.05% sodium azide) and the Alexa Fluor® 647-anti cAMP antibody 1/200 (supplied in 50 mmol/L Tris-HCl buffered (pH 7.8) salt solution with 0.9% NaCl, 0.1% BSA, and 0.05% sodium azide). Chemical compounds were dissolved in DMSO (final concentration 2% (v/v)). Background: In TR-FRET formats the signal depends on donor and acceptor labels being close together.
In the case of `CCn1c2ccccc2c2cc(Cc3cncc4cc(OC)c(OC)cc34)ccc21`, the pIC50 is 7.59. In the case of `CCCc1ncc(Cc2cc3cc(OC)ccc3nc2OCC#N)c2cc(OC)c(OC)cc12` it was 6.80; in that of `CCCc1ncc(Cc2ccc3cccc(OC(C)(C)C(N)=O)c3n2)c2cc(OC)c(OC)cc12`, 7.23.

By pIC50 is commonly meant the IC50 on a negative log10 scale, so that one unit is a factor of ten.

(Values after ChEMBL document CHEMBL5726789, “Substituted 6, 7-dialkoxy-3-isoquinoline derivatives as inhibitors of phosphodiesterase 10 (PDE 10A)” (2018).)
